The target in data set [1] is T1, Prostaglandin G/H synthase 2 (Homo sapiens, UniProt P35354).
T1 sequence (P35354 whole entry): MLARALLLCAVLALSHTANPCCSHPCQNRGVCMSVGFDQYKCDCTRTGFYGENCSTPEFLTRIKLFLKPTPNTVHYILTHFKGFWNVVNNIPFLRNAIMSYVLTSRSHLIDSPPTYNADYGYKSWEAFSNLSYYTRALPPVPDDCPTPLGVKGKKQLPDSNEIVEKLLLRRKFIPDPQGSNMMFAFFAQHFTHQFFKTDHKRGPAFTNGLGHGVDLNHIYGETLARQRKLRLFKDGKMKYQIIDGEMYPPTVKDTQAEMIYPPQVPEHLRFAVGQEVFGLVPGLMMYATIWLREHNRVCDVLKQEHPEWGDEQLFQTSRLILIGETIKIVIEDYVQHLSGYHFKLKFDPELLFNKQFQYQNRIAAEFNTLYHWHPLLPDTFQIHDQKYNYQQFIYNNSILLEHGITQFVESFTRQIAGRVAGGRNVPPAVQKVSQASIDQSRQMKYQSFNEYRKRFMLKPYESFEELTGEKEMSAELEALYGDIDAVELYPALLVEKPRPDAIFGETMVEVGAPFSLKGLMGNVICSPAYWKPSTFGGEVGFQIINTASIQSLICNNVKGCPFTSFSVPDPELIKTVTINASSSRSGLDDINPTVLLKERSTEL
The experiment in a line: Inhibition of human recombinant COX2 in cell-free system by enzyme immunoassay.

For data set [2], the system named is RAW264.7. Nature of the data set: Inhibition of PGE2 production in LPS-induced mouse RAW264.7 cells at 3 uM. The data set is classed as functional.
Data set [3] relates to RAW264.7. The experiment in a line: Inhibition of PGE2 production in LPS-induced mouse RAW264.7 cells at 10 uM. The data set is classed as functional.
Data set [4] has as its system RAW264.7. The experiment in a line: Cytotoxicity against mouse RAW264.7 cells assessed as reduction in cell viability by MTT assay. The data set is classed as cell-based.
In data set [5] the test system is RAW264.7. The experiment in a line: Inhibition of PGE2 production in LPS-induced mouse RAW264.7 cells. The data set is classed as functional, cell-based.
For data set [6], the target named is T2, Prostaglandin G/H synthase 2 (Homo sapiens) (UniProt P35354).
T2 sequence (whole entry): T1 sequence (P35354 whole entry)
Nature of the data set: Inhibition of human recombinant COX2 in cell-free system at 10 uM by enzyme immunoassay.

In data set [7] the test system is RAW264.7. The experiment in a line: Inhibition of PGE2 production in LPS-induced mouse RAW264.7 cells at 1 uM. The data set is classed as functional.

As usually defined, the IC50 is the concentration at which inhibition is half-maximal. For the compound `CC(C)c1ccc2c(c1)c(SC(C)(C)C)c(CC(C)(C)C(=O)O)n2Cc1ccc(Cl)cc1`, in data set [1], the IC50 was found to be 58 µM.
The inhibition is the share of the control response that was lost under treatment. Turning to `CS(=O)(=O)Nc1ccc([N+](=O)[O-])cc1OC1CCCCC1` [NS-398], at 3 µM the inhibition in data set [2] was 99.4%.
`O=C(O)C(Sc1nc(Cl)nc(Nc2ccc(-c3ccccc3)cc2)n1)c1cccc2ccccc12` (stereo not given) had an inhibition at 10 µM in data set [3] of 7.77%. For the same compound, the Activity in data set [4] was more than 10 µM.
In the same order, the values of `CCOC(=O)C(Sc1nc(Cl)nc(Nc2ccc(-c3ccccc3)cc2)n1)c1cccc2ccccc12` (stereo not given) are 78.6% and more than 10 µM.
In data set [3], `COC(=O)C(Sc1nc(Cl)nc(Nc2ccc(C(C)C)cc2)n1)c1ccccc1` (stereo not given) registered an inhibition at 10 µM of 91.8%. Also, in data set [5], half-maximal inhibition (IC50) was put at 5.76 µM. In addition, in data set [6], the inhibition is 31.8%. Besides, in data set [4], the Activity was more than 10 µM.
`CCOC(=O)C(Sc1nc(Cl)nc(Nc2ccc(Cc3ccccc3)cc2)n1)c1cccc2ccccc12` (stereo not given) gave an inhibition at 10 µM in data set [3] of 72.6%. Besides, in data set [4], the Activity was more than 10 µM.
Turning to `COC(=O)C(Sc1nc(Cl)nc(Nc2ccc(Cc3ccccc3)cc2)n1)c1ccccc1` (stereo not given), the inhibition at 10 µM in data set [3] came out at 90.8%. This compound also registered an IC50 in data set [5] of 5.52 µM. Moreover, in data set [6], the inhibition came out at 0%. For the same compound, the Activity in data set [4] was more than 10 µM.
In turn, `COC(=O)C(Sc1nc(Cl)nc(Nc2ccc(Oc3ccccc3)cc2)n1)c1cccc2ccccc12` (stereo not given) yielded an inhibition at 10 µM in data set [3] of 72.5%. Also, the Activity in data set [4] is more than 10 µM.
For `COC(=O)C(Sc1nc(Cl)nc(Nc2ccc(Oc3ccccc3)cc2)n1)c1ccccc1` (stereo not given), the inhibition at 10 µM in data set [3] amounted to 85.8%. For the same compound, the Activity in data set [4] was more than 10 µM.
The matching figures for `COC(=O)C(Sc1nc(Cl)nc(Nc2ccc(-c3ccccc3)cc2)n1)c1ccccc1` (stereo not given): 82.7% and more than 10 µM.
In the case of `COC(=O)C(Sc1nc(Cl)nc(Nc2ccc(C(C)C)cc2)n1)c1cccc2ccccc12` (stereo not given), at 10 µM the inhibition in data set [3] was 88.7%. For the same compound, the Activity in data set [4] is more than 10 µM.
`Cc1nc(Nc2ccc(C(C)C)cc2)nc(SC(C(N)=O)c2ccccc2)n1` (stereo not given) yielded an inhibition at 1 µM in data set [7] of 26.5%. The Activity in data set [4] is less than 10 µM.
For `COC(=O)C(Sc1nc(C)nc(Nc2ccc(C(C)C)cc2)n1)c1ccccc1` (stereo not given), 10 µM produced 85.7% inhibition in data set [3]. For the same compound, the Activity in data set [4] was more than 10 µM.
The matching figures for `CCOC(=O)C(Sc1nc(Cl)nc(Nc2ccc(C3CCCCC3)cc2)n1)c1cccc2ccccc12` (stereo not given): 43.7% and more than 10 µM.

Source of the values: ChEMBL document CHEMBL3352768, “Synthesis and PGE₂ production inhibition of s-triazine derivatives as a novel scaffold in RAW 264.7 macrophage cells” (Bioorg Med Chem Lett, 2014).
